Our source for the IC50 values is US9808425B2, “Targeted liposomes in cancer therapy” (WESTERN UNIVERSITY OF HEALTH SCIENCES, priority 2011, dated 2017).

One may read the IC50 as the concentration at which inhibition is half-maximal.

This assay has as its system A549 cells. Description: DNR-mediated cytotoxicity, MTS assay. It is filed as cell-based. To be noted: Homo sapiens, A549, 72 h, read-out: IC50 AVG. On the procedure:
Because DNR is a cytotoxic compound, the effectiveness of cystine liposomal DNR as an intracellular delivery system was assessed by relying on cytotoxicity measurements as a measure of DNR uptake. […] Cytotoxicity was measured in A549 cells following the addition of the aforementioned DNR formulations to the cells followed by an incubation period, and determination of cytotoxicity by using a MTS assay. Briefly, an MTS assay is a non radioactive cell proliferative assay of a tetrazolium compound (3-(4,5-dimethylthiazol-2-yl)-5-(3-carboxymethoxyphenyl)-2-(4-sulfophenyl)-2H-tetrazolium, inner salt; MTS) and the electron coupling reagent, phenazine methosulfate (PMS). MTS is bio-reduced by cells to a formazan compound by a reductase enzyme present in metabolically active cells. The absorbance of the formazan compound can be measured at 490 nm wavelength and is directly proportional to the number of living cells. The toxicity was determined using dose response curve to determine IC50. IC50 is the concentration of the test compound required to reduce light absorbance capacity of the cells by 50%.
MTS reagent was prepared by mixing 20% MTS and 1% PMS solution in RPMI 1640 medium of volume 8 ml. […] The amount of formazan was measured at 490 nm wavelength. […]

On to `COc1cccc2c1C(=O)c1c(O)c3c(c(O)c1C2=O)C[C@@](O)(C(C)=O)C[C@@H]3O[C@H]1C[C@H](N)[C@H](O)[C@H](C)O1` [Free DNR, daunorubicin], for which the IC50 worked out at 15.2 µM.
